Results: patent US20240398740A1, “THERAPEUTIC COMPOSITION, METHODS, AND USES FOR THE CONTROL OF SEIZURES” (priority 2022, published 2024)
Entries after “also recorded” stand apart in the source; their conditions may differ. Read-outs that look alike come from different tables or passages of the source.

Legend:
[1] = in vivo
bicuculline spiking = assay: acute bicuculline seizure focus model in nonhuman primates (surface EEG); format: in vivo, Macaca nemestrina; conditions: for block of bicuculline spiking by comparator drugs: IV administration (FIG. 13); for effect on bicuculline spiking after oral dose: 10 mg/kg
epileptiform activity = assay: primate neocortical seizure model; format: in vivo; conditions: Furosemide at 10 mg/kg IV, bumetanide at 2 mg/kg IV
Source text: The primate neocortical seizure model was used here for testing the effects of NKCC antagonists on epileptiform activity. This model and the techniques used to analyze the data was originally developed by Haglund and Hochman for the purpose of studying intrinsic optical signals in the human and primate brain, and how these signals could be used to map spread of seizure activity in the neocortex (Haglund et al. 1993, Haglund and Hochman, 2007). […] The afterdischarge protocol developed for human intraoperative studies as shown in the second figure below was also used in primate studies. As well, the physical properties of the optical signals from the brain generated by epileptiform activity (not shown here) (Haglund and Hochman, 2005, Haglund and Hochman 2007).

4-AP bursting = 4-AP bursting in primate neocortical seizure model; format: in vivo; conditions: Keppra 2×40 mg/kg
[2] = diuresis (urine production) in anesthetized, catheterized macaque monkeys
ADs and hand-twitching = assay: stimulation-evoked afterdischarges (ADs) and hand-twitching in primate model; conditions: in vivo
Protocol: Stimulation-evoked […] evoked by a 4 sec train of 60 Hz biphasic pulses at 4-20 mA using a bipolar stimulating electrode (5 mm interelectrode distance) powered by a constant current source (Ojemann Cortical Stimulator, Integra Life Sciences Corporation, NJ, U.S.A.) placed on the sensory cortex, or by passing current between two of the three surface electrodes. The AD threshold was determined by stimulating at the lowest level that reliably triggered AD activity three times in a row and thresholds remained constant throughout recordings. AD activity was reliably elicited on the sensory cortex during the same experiments in which a bicuculline focus was created on the motor cortex. […] The brain is electrically stimulated for 4 seconds at varying current magnitudes until the “after discharge threshold” is determined: the magnitude of stimulation current that is just sufficient to elicit ADs. The stimulation artifacts are shown in the top lefthand trace, denoted by stars (*). The ADs are shown by orange bars. One can see that, in this case, 7 mA was not sufficient for eliciting ADs, but 8 mA reliably generated ADs. […] In this way, changes in the effect of a treatment on this type of electrical stimulation-evoked epileptiform activity can be quantified by measuring changes in the AD-threshold. From Haglund and Hochman, 2007.

[3] = tested on: maximal pentylenetetrazol (PTZ) seizures; conditions: pharmacology review provided to the FDA; cited from earlier work
[4] = tested on: maximal electroshock (MES) seizures; conditions: pharmacology review provided to the FDA; cited from earlier work
[5] = tested on: spontaneous interictal spiking; conditions: 20 mg IV furosemide; cited from earlier work
afterdischarge activity = conditions: cortical stimulation, human patient; cited from earlier work
[6] = repeated dosing in healthy adult subjects: BUN, creatinine, serum chloride, urine specific gravity as signs of diuresis; format: in vivo, humans; conditions: healthy adults, eight capsules of 16 mg every 24 hours, day 1 to day 8
Protocol: Pharmacokinetic (PK) blood samples were collected and analyzed pre-dosing to establish baseline levels. Analysis was also done on day1, day 3, day 4, day 5, day 6, day 7, and day 8 following dosing. The samples were analysed for BUN (blood urea nitrogen), creatinine, serum chloride, and urine specific gravity. Diuresis is indicated by an out of proportion increase in serum BUN compared to creatinine (BUN increase out of proportion to creatinine), a decrease in urine specific gravity, and an increase in serum chloride. […] The grey horizontal lines in FIGS. 28-29 are indicative of an upper and a lower range for accepted normal values. The control-subject (placebo) are indicated with white-and-black dashed lines and grey dots.

fear-potentiated startle = assay: rat fear-potentiated startle (FPS) model of conditioned anxiety; format: in vivo, Long-Evans rats; conditions: 35 mg/kg IV
[7] = first-pass metabolism and intramuscular absorption of Bumetanide Dibenzylamide; format: in vivo
Source text: Refinement opportunities may include extended or controlled release oral capsule or tablet or use of a transdermal formulation. Intramuscular data shown below supports the development of a potential transdermal therapy.

[8] = PO gavage, CMC-water suspension, mol-Eq to 10 mg/kg bumetanide, bicuculline-generated spikes, pretreatment vs maximum change
[9] = PO, mol-Eq to 10 mg/kg bumetanide
[10] = PO, mol-Eq to 10 mg/kg bumetanide, interspike intervals
[11] = PO, 10 mg/kg bumetanide or mol-Eq

CCCCNc1cc(C(=O)N2CCOCC2)cc(S(N)(=O)=O)c1Oc1ccccc1 [NPT 2024, Bumetanide Morpholino Amide]
average rate of urine production after treatment [1]: lower average rate of urine production compared to bumetanide | percentage change in urine production over time [1]: lower percentage change in urine production over time compared to bumetanide | rate of urine production over time [1]: lower rate of urine production over time compared to bumetanide | Average % change in spike size (bicuculline spiking; [8]): 44% | Time to 50% recovery for spike sizes (bicuculline spiking; [9]): 110 min | Time to 50% recovery of ISI (bicuculline spiking; [9]): 180 min | Average % change in ISI (bicuculline spiking; [10]): 37.5% | interspike intervals compared with bumetanide parent (bicuculline spiking; n=4, FIG. 8): dramatic increase in interspike intervals | spikes per minute compared with bumetanide parent (bicuculline spiking; n=4, FIG. 9): dramatic decrease in spikes per minute | average spike height compared with bumetanide parent (bicuculline spiking; n=4, FIG. 10): dramatic decrease in the average spike height

CCCCNc1cc(C(=O)O)cc(S(N)(=O)=O)c1Oc1ccccc1 [Bumetanide, 3-(Aminosulfonyl)-5-(butylamino)-4-phenoxybenzoic acid, reference compound]
anticonvulsant effect in primate seizure model (epileptiform activity): block seizures | block of 4-AP bursting (4-AP bursting): block 4-AP bursting | diuretic response [2, 11]: potent diuretic effect | block of ADs and hand-twitching (ADs and hand-twitching): block ADs and hand-twitching | block of bicuculline spiking by comparator drugs (bicuculline spiking): block bicuculline spiking | block of bicuculline spiking by comparator drugs (bicuculline spiking; listed as bumetanide): suppress bicuculline spiking | time postinjection of traces showing profound, nearly complete blockade of epileptiform activity (bicuculline spiking; IV, 2 mg/kg bumetanide or mol-Eq): 81 min | effect on bicuculline spiking after intravenous dose (bicuculline spiking; IV, 2 mg/kg bumetanide or mol-Eq, in PEG-200): near-complete blockade of the bicuculline spiking | time postinjection of recovery to baseline pretreatment spiking (bicuculline spiking; IV, 2 mg/kg bumetanide or mol-Eq, NPT 2042 experiment ended before recovery): ~120 min | Average % change in spike size (bicuculline spiking; [8]): 23.7% | effect on bicuculline spiking after oral dose (bicuculline spiking; [11]): reduced spike height and frequency of bicuculline spiking; also recorded: transiently mediate a reduction in size and frequency of spiking | Time to 50% recovery for spike sizes (bicuculline spiking; [9]): 35 min | Time to 50% recovery of ISI (bicuculline spiking; [9]): 163 min | Average % change in ISI (bicuculline spiking; [10]): 68.7%

O=C1NC(c2ccccc2)(c2ccccc2)C(=O)N1COP(=O)(O)O [Fosphenatoin]
block of 4-AP bursting (4-AP bursting): block 4-AP bursting | block of ADs and hand-twitching (ADs and hand-twitching): block ADs and hand-twitching | block of bicuculline spiking by comparator drugs (bicuculline spiking): does not

CCCC(C)C1(CC)C(=O)NC(=S)NC1=O (stereo not shown) [pentothal, sodium thiopental]
block of 4-AP bursting (4-AP bursting): block 4-AP bursting

CC[C@@H](C(N)=O)N1CCCC1=O [Keppra, Levetiracetam]
anticonvulsant effect in primate seizure model (epileptiform activity): clear anticonvulsant effect | anticonvulsant activity in PTZ test [3]: no anticonvulsant activity | block of 4-AP bursting (4-AP bursting): does NOT block 4-AP bursting | block of ADs and hand-twitching (ADs and hand-twitching): does not | block of bicuculline spiking by comparator drugs (bicuculline spiking): block bicuculline spiking; also recorded: suppress bicuculline spiking | anticonvulsant activity in MES test [4]: no anticonvulsant activity

CCCCNc1cc(C(=O)N(CC)CC)cc(S(N)(=O)=O)c1Oc1ccccc1 [bumetanide diethylamide]
percentage change in urine production over time ([2]; FIG. 21, compared to bumetanide): lower percentage change in urine production over time compared to bumetanide | rate of urine production over time ([2]; FIG. 22, compared to bumetanide): lower rate of urine production over time compared to bumetanide | average rate of urine production after treatment ([2]; FIG. 23, compared to bumetanide): lower average rate of urine production compared to bumetanide | Average % change in spike size (bicuculline spiking; [8]): 40% | Time to 50% recovery for spike sizes (bicuculline spiking; [9]): 59 min | Time to 50% recovery of ISI (bicuculline spiking; [9]): 59 min | Average % change in ISI (bicuculline spiking; in vivo): 65%

NS(=O)(=O)c1cc(C(=O)O)c(NCc2ccco2)cc1Cl [Furosemide, furosemide]
anticonvulsant effect in primate seizure model (epileptiform activity): block seizures | diuretic potency relative to bumetanide ([2]; in vivo): about 1/10 | effect on spontaneous interictal spiking [5]: Blockade of Spontaneous Interictal Spiking | afterdischarge activity after treatment (afterdischarge activity): abruptly blocked | afterdischarge threshold (afterdischarge activity): increased the afterdischarge threshold

CCCCNc1cc(C(=O)N(Cc2ccccc2)Cc2ccccc2)cc(S(N)(=O)=O)c1Oc1ccccc1 [NPT 2042, N, N-dibenzyl 3-aminosulfonyl-5-butylamino-4-phenoxybenzamide]
indication of diuresis (BUN, creatinine, serum chloride, urine specific gravity) [6]: no indication of diuresis | anxiolytic effect in the FPS model (fear-potentiated startle): anxiolytic effect in the FPS model similar in magnitude to that elicited by equivalent (mg/kg) doses of bumetanide | first-pass metabolism by the liver ([7]; in vivo): susceptible to high first-pass metabolism by the liver | absorption after intramuscular administration ([7]; intramuscular): can be absorbed through the microvessels of the muscle into the circulation | average rate of urine production after treatment [1]: lower average rate of urine production compared to bumetanide | percentage change in urine production over time [1]: lower percentage change in urine production over time compared to bumetanide | rate of urine production over time [1]: lower rate of urine production over time compared to bumetanide | Average % change in ISI (bicuculline spiking; in vivo): 26% | Average % change in spike size (bicuculline spiking; in vivo): 35.2% | Time to 50% recovery for spike sizes (bicuculline spiking; in vivo): 160 min | Time to 50% recovery of ISI (bicuculline spiking; in vivo): 126 min | time postinjection of recovery to baseline pretreatment spiking (bicuculline spiking; in vivo): > 155 min | effect on bicuculline spiking after intravenous dose (bicuculline spiking; in vivo, iv, 2 mg/kg): near-complete blockade of the bicuculline spiking | time postinjection of traces showing profound, nearly complete blockade of epileptiform activity (bicuculline spiking; in vivo, iv, 2 mg/kg): 72 min | effect on bicuculline spiking after oral dose (bicuculline spiking; in vivo, po): reduced spike height and frequency of bicuculline spiking; also recorded: transiently mediate a reduction in size and frequency of spiking
